Assay results reported in patent EP2161278B1, “Single-chain coiled coil scaffold” (Complix N.V., priority 2008, dated 2010).
Peptide text beside a SMILES is read from it.

Test: Thermal denaturation of trimeric coiled coil peptides by CD thermal scan (signal at 222 nm versus temperature, curve fitting)
Assay type: physicochemical
Details: core mutants at positions 3a and 3d of the reference peptide with glutamine at 2a; Figure 9
Description: The said synthesized peptide was dissolved at a concentration of 292 microM in 20 mM phosphate buffer (PBS), 150 mM NaCl, pH 7.2. The CD spectra were measured between […], at 5 and 90 degrees Celsius (Figure 3). The spectrum at 5 degrees Celsius was indicative of a high alpha-helical secondary structure content, in agreement with the expectation that all heptad regions, but not all of the flanking residues, would assemble as alpha-helical coiled coils.
To analyse whether the temperature-induced transition between helical and nonhelical states was reversible, a forward (up) and backward (down) thermal scan was performed on the same sample, by recording the CD signal at […] as a function of temperature at a scanning rate of about 1 degree Celsius per minute (Figure 4). It was observed that the up and down scans almost perfectly coincided, thereby confirming the quantitative unfolding and refolding of the peptides in the sample.
It was further analyzed whether the thermal unfolding curve of Figure 4 conformed to the thermodynamic equations describing the equilibrium folding/unfolding reaction between three molecules free (monomeric) peptide and one entity of folded (trimeric) complex. This reaction is generally written as 3 peptide <=> peptide3 wherein "<=>" refers to a chemical equilibrium, "peptide" to a monomeric peptide in solution and "peptide3" to a trimeric entity in the folded (assembled, associated) state. This thermal unfolding curve was fitted to the theoretic equations: θ(T) = θM (T) + (θT(T)-θM(T))(1+root(F(-(1)/(2)+sqrt((1)/(4) + (F)/(27))), 3)+root(F(-(1)/(2)-sqrt((1)/(4) + (F)/(27))), 3)) [formula] wherein F = (exp(-(ΔHt)/(RT)(1-T/T1)-(ΔCp)/(RT)(T-Tt-Tln(T/Tt))))/(4) [formula] and T≡ the temperature, in degrees Kelvin, of the sample θ(T)≡ the CD-signal [theta]222 nm, in deg cm^2 dmol^-1, as a function of T θM(T)≡ the CD-signal for 100% free (monomeric) peptide as a function of T θT(T) ≡ the CD-signal for 100% associated (trimeric) peptide as a function of T Tt ≡ the transition temperature, where 50% of the total peptide concentration is associated ΔHt ≡ the enthalpy difference, in kJ per mole peptide, between mono- and trimeric states ΔCp ≡ the heat capacity difference, in J mol^-1 K^-1, between mono- and trimeric states R ≡ the ideal (universal) gas constant ≡ 8.31 J mol^-1 K^-1
The global CD signal was somewhat lower than expected, which could be due to an instrumental deviation, an error in the concentration determination, a lower purity, or a lower than expected alpha-helical content. Nevertheless, the main goal of this experiment was to examine the effect of the glutamine-to-isoleucine mutant on the stability of the complex. […] The estimated transition temperature was around 97 degrees Celsius, although the latter was difficult to determine because of incompleteness of the transition.
All ten peptides were analyzed by thermal CD scanning as in Examples 3 and 4. Fitting of the thermal denaturation curves, as described in Example 3, gave the corresponding transition temperatures shown in Figure 9. […]

Row | SMILES | effect of core substitution on stability (transition temperature) compared to the reference peptide comprising isoleucine at positions 3a and 3d
1 | CC[C@H](C)[C@H](NC(=O)[C@H](C)NC(=O)[C@H](C)NC(=O)[C@H](CCC(N)=O)NC(=O)[C@H](CCC(N)=O)NC(=O)[C@H](CCCCN)NC(=O)[C@H](CCC(N)=O)NC(=O)[C@@H](NC(=O)[C@H](CCC(=O)O)NC(=O)[C@H](CCC(=O)O)NC(=O)[C@@H](NC(=O)[C@H](CO)NC(=O)[C@H](CCSC)NC(C)=O)[C@@H](C)CC)[C@@H](C)CC)C(=O)N[C@@H](CCC(N)=O)C(=O)N[C@@H](CCCCN)C(=O)N[C@@H](CCC(N)=O)C(=O)N[C@H](C(=O)N[C@@H](C)C(=O)N[C@@H](C)C(=O)N[C@H](C(=O)N[C@@H](CCC(N)=O)C(=O)N[C@@H](CCCCN)C(=O)N[C@@H](CCC(N)=O)C(=O)N[C@H](C(=O)N[C@@H](Cc1ccc(O)cc1)C(=O)N[C@@H](CCCNC(=N)N)C(=O)N[C@@H](CCSC)C(=O)N[C@H](C(=O)N1CCC[C@H]1C(N)=O)[C@@H](C)O)[C@@H](C)CC)C(C)C)[C@@H](C)CC [3dV] (Ac-MSIEEIQKQQAAIQKQIAAVQKQIYRMTP-NH2) | relatively strong
2 | CC[C@H](C)[C@H](NC(=O)[C@H](C)NC(=O)[C@H](C)NC(=O)[C@H](CCC(N)=O)NC(=O)[C@H](CCC(N)=O)NC(=O)[C@H](CCCCN)NC(=O)[C@H](CCC(N)=O)NC(=O)[C@@H](NC(=O)[C@H](CCC(=O)O)NC(=O)[C@H](CCC(=O)O)NC(=O)[C@@H](NC(=O)[C@H](CO)NC(=O)[C@H](CCSC)NC(C)=O)[C@@H](C)CC)[C@@H](C)CC)C(=O)N[C@@H](CCC(N)=O)C(=O)N[C@@H](CCCCN)C(=O)N[C@@H](CCC(N)=O)C(=O)N[C@@H](CC(C)C)C(=O)N[C@@H](C)C(=O)N[C@@H](C)C(=O)N[C@H](C(=O)N[C@@H](CCC(N)=O)C(=O)N[C@@H](CCCCN)C(=O)N[C@@H](CCC(N)=O)C(=O)N[C@H](C(=O)N[C@@H](Cc1ccc(O)cc1)C(=O)N[C@@H](CCCNC(=N)N)C(=O)N[C@@H](CCSC)C(=O)N[C@H](C(=O)N1CCC[C@H]1C(N)=O)[C@@H](C)O)[C@@H](C)CC)[C@@H](C)CC [3aL] (Ac-MSIEEIQKQQAAIQKQLAAIQKQIYRMTP-NH2) | slightly stabilizing effect
3 | CC[C@H](C)[C@H](NC(=O)[C@H](C)NC(=O)[C@H](C)NC(=O)[C@H](CCC(N)=O)NC(=O)[C@H](CCC(N)=O)NC(=O)[C@H](CCCCN)NC(=O)[C@H](CCC(N)=O)NC(=O)[C@@H](NC(=O)[C@H](CCC(=O)O)NC(=O)[C@H](CCC(=O)O)NC(=O)[C@@H](NC(=O)[C@H](CO)NC(=O)[C@H](CCSC)NC(C)=O)[C@@H](C)CC)[C@@H](C)CC)C(=O)N[C@@H](CCC(N)=O)C(=O)N[C@@H](CCCCN)C(=O)N[C@@H](CCC(N)=O)C(=O)N[C@@H](CO)C(=O)N[C@@H](C)C(=O)N[C@@H](C)C(=O)N[C@H](C(=O)N[C@@H](CCC(N)=O)C(=O)N[C@@H](CCCCN)C(=O)N[C@@H](CCC(N)=O)C(=O)N[C@H](C(=O)N[C@@H](Cc1ccc(O)cc1)C(=O)N[C@@H](CCCNC(=N)N)C(=O)N[C@@H](CCSC)C(=O)N[C@H](C(=O)N1CCC[C@H]1C(N)=O)[C@@H](C)O)[C@@H](C)CC)[C@@H](C)CC [3aS] (Ac-MSIEEIQKQQAAIQKQSAAIQKQIYRMTP-NH2) | disruptive
4 | CC[C@H](C)[C@H](NC(=O)[C@H](C)NC(=O)[C@H](C)NC(=O)[C@H](CCC(N)=O)NC(=O)[C@H](CCC(N)=O)NC(=O)[C@H](CCCCN)NC(=O)[C@H](CCC(N)=O)NC(=O)[C@@H](NC(=O)[C@H](CCC(=O)O)NC(=O)[C@H](CCC(=O)O)NC(=O)[C@@H](NC(=O)[C@H](CO)NC(=O)[C@H](CCSC)NC(C)=O)[C@@H](C)CC)[C@@H](C)CC)C(=O)N[C@@H](CCC(N)=O)C(=O)N[C@@H](CCCCN)C(=O)N[C@@H](CCC(N)=O)C(=O)N[C@H](C(=O)N[C@@H](C)C(=O)N[C@@H](C)C(=O)N[C@@H](CCC(N)=O)C(=O)N[C@@H](CCC(N)=O)C(=O)N[C@@H](CCCCN)C(=O)N[C@@H](CCC(N)=O)C(=O)N[C@H](C(=O)N[C@@H](Cc1ccc(O)cc1)C(=O)N[C@@H](CCCNC(=N)N)C(=O)N[C@@H](CCSC)C(=O)N[C@H](C(=O)N1CCC[C@H]1C(N)=O)[C@@H](C)O)[C@@H](C)CC)[C@@H](C)CC [3dQ] (Ac-MSIEEIQKQQAAIQKQIAAQQKQIYRMTP-NH2) | disruptive
5 | CC[C@H](C)[C@H](NC(=O)[C@H](C)NC(=O)[C@H](C)NC(=O)[C@H](CCC(N)=O)NC(=O)[C@H](CCC(N)=O)NC(=O)[C@H](CCCCN)NC(=O)[C@H](CCC(N)=O)NC(=O)[C@@H](NC(=O)[C@H](CCC(=O)O)NC(=O)[C@H](CCC(=O)O)NC(=O)[C@@H](NC(=O)[C@H](CO)NC(=O)[C@H](CCSC)NC(C)=O)[C@@H](C)CC)[C@@H](C)CC)C(=O)N[C@@H](CCC(N)=O)C(=O)N[C@@H](CCCCN)C(=O)N[C@@H](CCC(N)=O)C(=O)N[C@H](C(=O)N[C@@H](C)C(=O)N[C@@H](C)C(=O)N[C@H](C(=O)N[C@@H](CCC(N)=O)C(=O)N[C@@H](CCCCN)C(=O)N[C@@H](CCC(N)=O)C(=O)N[C@H](C(=O)N[C@@H](Cc1ccc(O)cc1)C(=O)N[C@@H](CCCNC(=N)N)C(=O)N[C@@H](CCSC)C(=O)N[C@H](C(=O)N1CCC[C@H]1C(N)=O)[C@@H](C)O)[C@@H](C)CC)[C@@H](C)CC)C(C)C [3aV] (Ac-MSIEEIQKQQAAIQKQVAAIQKQIYRMTP-NH2) | moderately
